The experiment deals with T1, rat liver microsomal HMGCoA reductase (Rattus norvegicus, UniProt P51639).
T1 construct: rat liver microsomal HMGCoA reductase; from tissue; host or cells: rat liver microsomes
T1 sequence (P51639 1-887): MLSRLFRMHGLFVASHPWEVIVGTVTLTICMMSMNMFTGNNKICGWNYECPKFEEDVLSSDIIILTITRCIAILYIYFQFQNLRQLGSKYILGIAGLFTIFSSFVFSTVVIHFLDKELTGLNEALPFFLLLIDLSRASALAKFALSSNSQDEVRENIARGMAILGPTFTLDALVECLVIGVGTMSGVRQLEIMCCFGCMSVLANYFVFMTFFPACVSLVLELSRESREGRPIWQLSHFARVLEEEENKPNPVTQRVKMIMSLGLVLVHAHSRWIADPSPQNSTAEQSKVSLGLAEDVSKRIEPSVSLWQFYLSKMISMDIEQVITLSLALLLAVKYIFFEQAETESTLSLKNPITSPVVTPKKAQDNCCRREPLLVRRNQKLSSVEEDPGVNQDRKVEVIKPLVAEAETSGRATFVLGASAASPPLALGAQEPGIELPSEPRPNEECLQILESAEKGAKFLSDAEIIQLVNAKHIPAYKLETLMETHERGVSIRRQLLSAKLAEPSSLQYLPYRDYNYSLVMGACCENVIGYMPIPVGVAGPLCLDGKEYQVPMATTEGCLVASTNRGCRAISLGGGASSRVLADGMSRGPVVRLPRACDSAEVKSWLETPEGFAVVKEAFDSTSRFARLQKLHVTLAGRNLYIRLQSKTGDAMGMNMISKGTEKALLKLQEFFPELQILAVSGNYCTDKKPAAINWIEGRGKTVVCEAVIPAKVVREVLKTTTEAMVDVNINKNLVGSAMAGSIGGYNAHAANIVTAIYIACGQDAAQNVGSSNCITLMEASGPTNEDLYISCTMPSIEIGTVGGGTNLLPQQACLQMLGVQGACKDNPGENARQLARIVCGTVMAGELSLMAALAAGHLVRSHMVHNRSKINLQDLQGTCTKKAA
Description: in vitro inhibition of rat liver microsomal HMGCoA reductase. Type of experiment: biochemical. To be noted: read-out: % inhibition (HMG CoA reductase); for inhibition at 50 µM: at 5.0×10^-5 M. The procedure: The in vitro inhibitory activity of the present compounds is evaluated using rat liver microsomal HMGCoA reductase as described by Edwards, et al. J. Biol. Chem. 249, 2891 (1974). The IC50 is defined as the concentration required to inhibit the enzyme by 50% of control.
HMG derivaties are added to a preincubation mixture consisting of 0.1 M K PO4, PH7.2, 0.02 M glucose-6-PO4, 2.5 mM NADP, 0.7 units of glucose-6-PO4 dehydrogenase, 5 mM dithiothreitol, 50 mM mevalonic acid and approximately 50 μg of microsomal protein. Triplicate samples are preincubated for 15 min. at 37° C. in a volume of 1 ml. Incubation is started with 40 μM 14C-HMGCoA (0.1 ml) run for 15 min. at 37° C. and stopped with 5 N HCl (0.1 ml). Assay tubes are allowed to set for at least 30 min., then approximately 50,000 dpm of ^3 H-mevalonic acid are added to provide for extraction efficiency. Mevalonic acid is extracted with ether and the % ^14 C-HMGCoA incorporation determined for concurrent control and test reaction systems. Testing is done (first) with a range finding assay followed by a 4 or 5 point assay to find the IC50 value.

Broadly, the inhibition is the relative decrease from the control value, in per cent. Turning to `CC(CCCCCCCCC1CC(O)(CC(=O)O)CC(=O)O1)c1ccccc1` (stereo not drawn) [Example 2, 3-Carboxymethyl-3,5-dihydroxy-14-phenylpentadecanoic acid 1,5-Lactone], the inhibition at 50 µM came out at 57%.

Consider `CC(CCCCCCCCC1CC(O)(CC(=O)O)CC(=O)O1)C1CCCCC1` (stereo not drawn) [Example 3, 3-Carboxymethyl-14-cyclohexyl-3,5-dihydroxypentadecanoic acid 1,5-lactone], for which, under “at 7.5×10^-5 M”, the inhibition at 75 µM is 49%.

Turning to `CCCCCCCCCCCCCC1CC(O)(CC(=O)O)CC(=O)O1` (stereo not drawn) [Example 1, 3-Carboxymethyl-3,5-Dihydroxyoctadecanoic Acid-1,5-Lactone], the inhibition at 50 µM is 52%.

The record behind these values is patent publication US4622338A, “Substituted glutaric acid lactones in the treatment of hyperlipidemia” (G. D. Searle & Co., priority 1985, dated 1986).
